Experiments:
[1] = target: Beta-2 adrenergic receptor (Homo sapiens, UniProt P07550)
[2] = target: T1, Alpha-1A adrenergic receptor (Homo sapiens, UniProt P35348); type: functional, cell-based
T1 sequence (P35348 whole entry): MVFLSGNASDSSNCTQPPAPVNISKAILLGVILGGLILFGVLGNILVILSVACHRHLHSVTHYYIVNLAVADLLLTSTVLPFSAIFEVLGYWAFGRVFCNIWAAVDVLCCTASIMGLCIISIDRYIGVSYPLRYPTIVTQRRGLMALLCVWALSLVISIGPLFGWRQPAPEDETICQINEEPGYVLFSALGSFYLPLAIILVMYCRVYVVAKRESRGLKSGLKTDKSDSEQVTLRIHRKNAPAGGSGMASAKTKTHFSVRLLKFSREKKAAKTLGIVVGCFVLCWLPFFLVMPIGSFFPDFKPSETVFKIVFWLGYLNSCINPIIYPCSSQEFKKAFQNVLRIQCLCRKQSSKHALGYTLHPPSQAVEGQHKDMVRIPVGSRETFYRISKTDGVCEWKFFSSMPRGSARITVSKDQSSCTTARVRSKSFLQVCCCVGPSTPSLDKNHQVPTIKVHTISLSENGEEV

[3] = target: T2, Muscarinic acetylcholine receptor M2 (Homo sapiens, UniProt P08172); type: functional, cell-based
T2 sequence (P08172 whole entry): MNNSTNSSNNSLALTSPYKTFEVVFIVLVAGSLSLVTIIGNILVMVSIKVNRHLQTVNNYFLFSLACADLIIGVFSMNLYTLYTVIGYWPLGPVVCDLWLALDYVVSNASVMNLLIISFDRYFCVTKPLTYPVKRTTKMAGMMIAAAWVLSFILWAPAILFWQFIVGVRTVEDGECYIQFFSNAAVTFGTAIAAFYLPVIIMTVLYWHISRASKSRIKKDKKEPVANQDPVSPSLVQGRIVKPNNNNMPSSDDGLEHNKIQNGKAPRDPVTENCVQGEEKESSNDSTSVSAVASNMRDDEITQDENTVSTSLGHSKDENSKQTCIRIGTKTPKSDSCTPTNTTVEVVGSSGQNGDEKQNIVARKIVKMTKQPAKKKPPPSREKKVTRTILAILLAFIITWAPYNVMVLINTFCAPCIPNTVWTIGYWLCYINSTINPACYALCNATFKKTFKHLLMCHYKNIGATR

Endothelin-1 receptor = target: T3, Endothelin-1 receptor (Homo sapiens, UniProt P25101)
T3 sequence (P25101 whole entry): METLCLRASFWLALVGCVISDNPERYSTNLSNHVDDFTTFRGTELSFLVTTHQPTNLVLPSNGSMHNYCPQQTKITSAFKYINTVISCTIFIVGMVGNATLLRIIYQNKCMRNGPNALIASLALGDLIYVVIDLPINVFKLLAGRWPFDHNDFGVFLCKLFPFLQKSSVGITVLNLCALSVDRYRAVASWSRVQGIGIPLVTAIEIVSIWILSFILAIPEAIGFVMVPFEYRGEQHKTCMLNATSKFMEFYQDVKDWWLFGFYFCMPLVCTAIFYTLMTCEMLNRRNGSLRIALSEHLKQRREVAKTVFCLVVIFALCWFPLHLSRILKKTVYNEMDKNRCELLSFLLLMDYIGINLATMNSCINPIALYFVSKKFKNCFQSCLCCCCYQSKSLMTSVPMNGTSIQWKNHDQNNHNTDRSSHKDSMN

Cannabinoid receptor 1 = Cannabinoid receptor 1 (Homo sapiens, UniProt P21554); type: functional, cell-based
Sequence of Cannabinoid receptor 1 (P21554 whole entry): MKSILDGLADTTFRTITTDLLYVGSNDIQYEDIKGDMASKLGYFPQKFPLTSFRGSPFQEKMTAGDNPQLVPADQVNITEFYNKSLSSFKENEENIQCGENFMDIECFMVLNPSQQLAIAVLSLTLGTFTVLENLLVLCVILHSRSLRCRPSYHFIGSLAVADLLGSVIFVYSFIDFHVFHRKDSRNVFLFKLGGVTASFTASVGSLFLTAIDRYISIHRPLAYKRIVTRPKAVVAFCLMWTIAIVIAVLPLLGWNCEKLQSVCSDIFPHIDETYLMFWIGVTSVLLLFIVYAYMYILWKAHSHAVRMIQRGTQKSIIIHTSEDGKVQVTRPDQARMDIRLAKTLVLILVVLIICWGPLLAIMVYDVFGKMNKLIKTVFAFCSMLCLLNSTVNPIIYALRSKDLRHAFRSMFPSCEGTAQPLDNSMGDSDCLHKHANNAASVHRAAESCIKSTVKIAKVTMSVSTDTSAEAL

[4] = target: 5-hydroxytryptamine receptor 2B (Homo sapiens, UniProt P41595); type: functional, cell-based
Sequence of 5-hydroxytryptamine receptor 2B (P41595 whole entry): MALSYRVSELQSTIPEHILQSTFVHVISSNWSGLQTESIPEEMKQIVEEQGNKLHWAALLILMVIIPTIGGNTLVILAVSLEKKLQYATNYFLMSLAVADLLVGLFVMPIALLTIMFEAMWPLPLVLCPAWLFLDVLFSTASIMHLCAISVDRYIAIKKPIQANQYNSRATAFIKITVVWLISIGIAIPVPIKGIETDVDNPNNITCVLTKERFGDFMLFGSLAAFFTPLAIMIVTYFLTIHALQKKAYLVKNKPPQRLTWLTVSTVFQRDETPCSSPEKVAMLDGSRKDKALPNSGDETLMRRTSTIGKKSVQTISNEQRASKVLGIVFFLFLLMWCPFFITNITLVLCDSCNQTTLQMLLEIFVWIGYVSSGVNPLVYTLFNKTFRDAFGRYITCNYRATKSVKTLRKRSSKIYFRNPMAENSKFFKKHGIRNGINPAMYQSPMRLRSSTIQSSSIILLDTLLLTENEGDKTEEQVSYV

[5] = target: T4, Gastrin/cholecystokinin type B receptor (Homo sapiens, UniProt P32239)
T4 sequence (P32239 whole entry): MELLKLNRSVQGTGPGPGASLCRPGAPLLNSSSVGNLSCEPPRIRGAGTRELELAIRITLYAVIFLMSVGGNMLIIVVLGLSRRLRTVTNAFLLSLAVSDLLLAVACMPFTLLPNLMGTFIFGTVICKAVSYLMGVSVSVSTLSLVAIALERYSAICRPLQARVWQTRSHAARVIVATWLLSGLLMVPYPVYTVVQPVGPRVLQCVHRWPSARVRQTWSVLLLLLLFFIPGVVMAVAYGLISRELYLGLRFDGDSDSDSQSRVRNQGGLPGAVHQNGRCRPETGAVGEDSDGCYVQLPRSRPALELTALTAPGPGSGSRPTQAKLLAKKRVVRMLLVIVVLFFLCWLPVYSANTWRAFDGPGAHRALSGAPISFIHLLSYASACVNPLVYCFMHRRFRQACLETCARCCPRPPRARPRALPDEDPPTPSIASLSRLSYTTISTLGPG

[6] = target: Sodium-dependent serotonin transporter (Homo sapiens, UniProt P31645)
Sequence of Sodium-dependent serotonin transporter (P31645 whole entry): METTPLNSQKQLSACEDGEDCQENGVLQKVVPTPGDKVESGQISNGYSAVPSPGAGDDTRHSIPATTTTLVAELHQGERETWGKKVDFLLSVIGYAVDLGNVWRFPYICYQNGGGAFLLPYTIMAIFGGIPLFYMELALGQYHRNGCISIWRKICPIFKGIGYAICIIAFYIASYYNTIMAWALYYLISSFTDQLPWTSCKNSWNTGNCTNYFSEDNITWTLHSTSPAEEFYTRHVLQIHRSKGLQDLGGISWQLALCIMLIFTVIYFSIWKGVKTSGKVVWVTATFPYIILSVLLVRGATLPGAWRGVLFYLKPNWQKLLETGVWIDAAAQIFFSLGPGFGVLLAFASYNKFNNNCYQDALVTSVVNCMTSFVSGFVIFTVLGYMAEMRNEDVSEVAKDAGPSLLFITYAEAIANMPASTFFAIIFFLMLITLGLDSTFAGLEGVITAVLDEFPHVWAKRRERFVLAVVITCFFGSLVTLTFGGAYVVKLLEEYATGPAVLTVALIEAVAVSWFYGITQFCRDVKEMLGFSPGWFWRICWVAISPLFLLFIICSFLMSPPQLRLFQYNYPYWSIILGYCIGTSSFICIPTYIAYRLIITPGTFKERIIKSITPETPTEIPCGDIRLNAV

[7] = target: Sodium-dependent dopamine transporter (Homo sapiens, UniProt Q01959)
Sequence of Sodium-dependent dopamine transporter (Q01959 whole entry): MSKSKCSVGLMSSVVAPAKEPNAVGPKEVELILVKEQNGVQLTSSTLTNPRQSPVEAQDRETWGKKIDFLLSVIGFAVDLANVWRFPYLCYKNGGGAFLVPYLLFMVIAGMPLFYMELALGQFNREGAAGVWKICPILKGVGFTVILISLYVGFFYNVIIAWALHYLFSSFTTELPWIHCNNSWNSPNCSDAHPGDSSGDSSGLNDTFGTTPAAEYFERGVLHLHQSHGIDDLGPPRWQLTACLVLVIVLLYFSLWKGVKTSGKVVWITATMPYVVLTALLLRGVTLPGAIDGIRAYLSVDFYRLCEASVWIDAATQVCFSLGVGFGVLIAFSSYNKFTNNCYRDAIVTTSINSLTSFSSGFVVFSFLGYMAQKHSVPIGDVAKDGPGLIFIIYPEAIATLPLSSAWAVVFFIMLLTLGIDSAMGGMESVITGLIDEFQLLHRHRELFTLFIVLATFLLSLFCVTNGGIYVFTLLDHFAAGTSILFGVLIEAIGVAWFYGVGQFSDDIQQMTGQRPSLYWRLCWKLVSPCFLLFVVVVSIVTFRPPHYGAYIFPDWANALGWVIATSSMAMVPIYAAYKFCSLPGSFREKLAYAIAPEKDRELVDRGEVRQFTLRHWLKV

[8] = target: cGMP-inhibited 3',5'-cyclic phosphodiesterase 3A (Homo sapiens, UniProt Q14432); type: functional
Sequence of cGMP-inhibited 3',5'-cyclic phosphodiesterase 3A (Q14432 whole entry): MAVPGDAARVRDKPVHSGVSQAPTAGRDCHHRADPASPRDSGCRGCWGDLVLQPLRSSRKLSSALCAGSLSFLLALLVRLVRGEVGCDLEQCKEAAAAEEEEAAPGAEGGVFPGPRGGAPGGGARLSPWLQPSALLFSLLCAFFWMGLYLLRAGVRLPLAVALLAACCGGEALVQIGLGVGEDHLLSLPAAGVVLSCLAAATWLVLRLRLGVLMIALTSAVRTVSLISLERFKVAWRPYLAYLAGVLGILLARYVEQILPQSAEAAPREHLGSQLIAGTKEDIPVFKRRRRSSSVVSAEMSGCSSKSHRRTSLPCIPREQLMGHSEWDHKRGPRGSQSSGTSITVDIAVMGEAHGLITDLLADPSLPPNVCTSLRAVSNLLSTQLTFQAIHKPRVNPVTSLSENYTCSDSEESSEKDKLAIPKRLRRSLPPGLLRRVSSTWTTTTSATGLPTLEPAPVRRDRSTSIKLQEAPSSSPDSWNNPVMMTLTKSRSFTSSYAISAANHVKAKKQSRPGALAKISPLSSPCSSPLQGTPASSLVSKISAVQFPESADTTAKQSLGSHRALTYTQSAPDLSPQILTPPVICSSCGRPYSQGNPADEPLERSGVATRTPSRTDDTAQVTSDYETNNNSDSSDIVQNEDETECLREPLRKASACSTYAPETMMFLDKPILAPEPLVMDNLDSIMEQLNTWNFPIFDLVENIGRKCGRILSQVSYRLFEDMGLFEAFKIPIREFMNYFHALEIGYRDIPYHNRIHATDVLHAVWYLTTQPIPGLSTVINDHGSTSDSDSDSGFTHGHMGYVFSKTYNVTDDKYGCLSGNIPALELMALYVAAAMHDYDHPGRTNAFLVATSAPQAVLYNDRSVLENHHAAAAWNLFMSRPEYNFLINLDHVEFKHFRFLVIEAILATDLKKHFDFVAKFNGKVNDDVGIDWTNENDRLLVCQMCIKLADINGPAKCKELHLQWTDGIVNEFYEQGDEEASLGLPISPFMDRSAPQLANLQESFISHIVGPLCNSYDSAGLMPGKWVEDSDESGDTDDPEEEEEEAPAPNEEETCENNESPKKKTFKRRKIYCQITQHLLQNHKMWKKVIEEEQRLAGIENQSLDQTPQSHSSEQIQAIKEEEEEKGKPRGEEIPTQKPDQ

Vasopressin V1a receptor = Vasopressin V1a receptor (Homo sapiens, UniProt P37288)
[9] = target: 5-hydroxytryptamine receptor 2A (Homo sapiens, UniProt P28223); type: functional, cell-based
Sequence of 5-hydroxytryptamine receptor 2A (P28223 whole entry): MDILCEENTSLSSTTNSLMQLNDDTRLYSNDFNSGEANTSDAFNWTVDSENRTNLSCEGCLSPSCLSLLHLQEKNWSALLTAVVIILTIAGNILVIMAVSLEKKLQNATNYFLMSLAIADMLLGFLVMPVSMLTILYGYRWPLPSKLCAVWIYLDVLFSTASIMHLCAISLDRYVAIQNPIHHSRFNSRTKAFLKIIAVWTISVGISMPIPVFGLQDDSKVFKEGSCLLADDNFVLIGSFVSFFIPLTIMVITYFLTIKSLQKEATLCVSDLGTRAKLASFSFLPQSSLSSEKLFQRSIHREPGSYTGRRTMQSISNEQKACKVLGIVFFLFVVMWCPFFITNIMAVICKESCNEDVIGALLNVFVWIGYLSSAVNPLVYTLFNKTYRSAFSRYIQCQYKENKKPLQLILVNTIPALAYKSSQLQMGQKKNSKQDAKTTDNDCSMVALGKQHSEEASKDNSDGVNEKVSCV

Adenosine receptor A1 = target: T5, Adenosine receptor A1 (Homo sapiens, UniProt P30542)
T5 sequence (P30542 whole entry): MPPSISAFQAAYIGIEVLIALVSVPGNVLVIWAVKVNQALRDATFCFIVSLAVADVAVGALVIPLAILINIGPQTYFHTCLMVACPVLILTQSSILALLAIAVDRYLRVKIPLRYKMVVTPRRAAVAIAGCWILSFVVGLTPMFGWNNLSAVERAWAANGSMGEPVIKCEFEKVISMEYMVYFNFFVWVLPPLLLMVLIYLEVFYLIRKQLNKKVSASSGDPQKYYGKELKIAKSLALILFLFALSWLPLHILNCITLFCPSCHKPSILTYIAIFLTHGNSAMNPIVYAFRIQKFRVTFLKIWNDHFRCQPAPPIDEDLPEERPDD

Histamine H2 receptor = Histamine H2 receptor (Homo sapiens, UniProt P25021); type: functional, cell-based
Sequence of Histamine H2 receptor (P25021 whole entry): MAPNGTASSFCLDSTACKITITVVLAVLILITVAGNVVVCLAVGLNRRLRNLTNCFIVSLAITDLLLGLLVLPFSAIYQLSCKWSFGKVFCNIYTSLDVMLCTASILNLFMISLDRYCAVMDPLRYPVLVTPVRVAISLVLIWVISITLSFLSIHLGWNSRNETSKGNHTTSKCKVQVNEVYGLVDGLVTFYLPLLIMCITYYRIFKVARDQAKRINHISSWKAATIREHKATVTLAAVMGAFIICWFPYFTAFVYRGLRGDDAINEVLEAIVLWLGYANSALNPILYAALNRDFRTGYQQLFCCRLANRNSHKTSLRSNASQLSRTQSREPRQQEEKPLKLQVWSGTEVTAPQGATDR

[10] = target: Voltage-dependent L-type calcium channel subunit alpha-1C (Rattus norvegicus, UniProt P22002); type: functional
Vasopressin V2 receptor = Vasopressin V2 receptor (Homo sapiens, UniProt P30518)
Sequence of Vasopressin V2 receptor (P30518 whole entry): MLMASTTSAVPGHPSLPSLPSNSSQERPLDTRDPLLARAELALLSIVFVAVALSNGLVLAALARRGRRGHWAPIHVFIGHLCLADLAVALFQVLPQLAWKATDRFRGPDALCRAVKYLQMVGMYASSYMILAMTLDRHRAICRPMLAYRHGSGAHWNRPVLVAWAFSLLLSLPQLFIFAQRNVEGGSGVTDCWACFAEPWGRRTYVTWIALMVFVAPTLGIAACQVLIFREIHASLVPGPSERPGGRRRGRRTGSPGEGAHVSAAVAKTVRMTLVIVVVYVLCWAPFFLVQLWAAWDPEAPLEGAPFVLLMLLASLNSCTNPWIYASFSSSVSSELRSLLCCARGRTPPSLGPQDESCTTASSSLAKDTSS

Motilin receptor = Motilin receptor (Homo sapiens, UniProt O43193)
Sequence of Motilin receptor (O43193 whole entry): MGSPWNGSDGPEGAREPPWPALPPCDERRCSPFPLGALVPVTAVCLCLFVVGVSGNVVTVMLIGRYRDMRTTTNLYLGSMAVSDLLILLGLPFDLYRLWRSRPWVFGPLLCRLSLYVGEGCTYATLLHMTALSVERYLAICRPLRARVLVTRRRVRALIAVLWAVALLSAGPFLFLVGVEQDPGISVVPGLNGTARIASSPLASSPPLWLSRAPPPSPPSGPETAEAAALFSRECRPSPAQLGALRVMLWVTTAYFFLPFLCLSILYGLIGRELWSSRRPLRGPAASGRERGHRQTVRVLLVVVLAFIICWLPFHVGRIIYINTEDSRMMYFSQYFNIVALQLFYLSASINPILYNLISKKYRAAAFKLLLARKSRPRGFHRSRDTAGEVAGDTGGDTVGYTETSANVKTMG

Measured: AC50
Also: assay procedure not described here.

O=C1Nc2ccc(Cl)cc2C(c2ccccc2)=NC1O (stereo not drawn) [OXAZEPAM]
> 30 µM: [2] | Endothelin-1 receptor | Cannabinoid receptor 1 | [5] | [8] | [9] | Adenosine receptor A1 | Vasopressin V2 receptor
> 10 µM: all other assays above

CC(=O)c1ccc2c(c1)N(CCCN1CCC(CCO)CC1)c1ccccc1S2 [PIPERACETAZINE]
1.3 µM: [6]
> 10 µM: [8]
7.6 µM: [7]
22 µM: [1]
> 30 µM: all other assays above

CCN(CC)CC(=O)Oc1ccc(NC(C)=O)cc1 [PROPACETAMOL]
> 30 µM: all assays above

CCCOC(C(=O)OC1CCN(C)CC1)(c1ccccc1)c1ccccc1 [PROPIVERINE]
16 µM: [7]
15 µM: Motilin receptor
> 30 µM: all other assays above
